According to US12364670B2, “Cannabidiol-type cannabinoid compound” (JAZZ PHARMACEUTICALS RESEARCH UK LIMITED, priority 2019, dated 2025):

Key:
[1] = test system: electroshock-induced generalised seizure threshold (MEST) in the mouse; assay: Maximal electroshock seizure threshold (MEST) test in the mouse, Example 3; details: for CC50 ± SEM: vehicle CC50 24.3
Experimental: The efficacy of CBD-C6 was tested in a mouse model of generalised seizure, the maximal electroshock seizure threshold (MEST) test as described in Example 2.
Naïve mice were acclimatised to the procedure room in their home cages for up to 7 days, with food and water available ad libitum.
All animals were weighed at the beginning of the study and randomly assigned to treatment groups based on a mean distribution of body weight across groups.
The first animal within a treatment group was given a shock at the expected or estimated CC50 current. For subsequent animals, the current was lowered or raised depending on the convulsions outcome from the preceding animal.
Data generated from each treatment group were used to calculate the CC50±SEM values for the treatment group.
Vehicle: (5% ethanol, 5% solutol, 90% Saline) was prepared as follows: 1 mL of ethanol, 1 mL of solutol were warmed to 60° C., in 18 mL of saline (1:1:18).
The test compound, CBD-C6 was prepared according to the method described in Example 1. CBD-C6 was administered at 10, 30 and 100 mg/kg (i.p.) in a 1:1:18 ethanol:solutol:0.9% saline formulation.
CBD-C6 effects were also calculated as percentage change in CC50 from the vehicle control group. Significant difference between drug-treated animals and controls were assessed according to Litchfield and Wilcoxon (1949).

[2] = test system: electroshock-induced tonic hind limb extensor seizure (MEST) in the mouse; assay: Maximal electroshock seizure threshold (MEST) test in the mouse, Example 2; details: for CC50 +/- SEM: vehicle CC50 21.0
Experimental: The efficacy of CBD-C6 was tested in a mouse model of seizure, the maximal electroshock seizure threshold (MEST) test.
The maximal electroshock seizure threshold (MEST) test is widely utilized preclinically to evaluate pro- and anti-convulsant properties of molecules (Loscher et al., 1991).
In the MEST test the ability of a drug to alter the seizure threshold current required to induce hind limb tonic extensor convulsions is measured according to an “up and down” method of shock titration (Kimball et al., 1957). An increase in seizure threshold is indicative of anti-convulsant effect.
Naïve mice were acclimatised to the procedure room in their home cages, with food and water available ad libitum.
Animals were dosed i.p. according to dose group.
The vehicle (10 ml/kg i.p. 60 min pre-treatment time) was 1:1:18 vehicle 5% ethanol, 5% kolliphor EL, 90% saline.
The test compound, CBD-C6 was administered at doses of 10, 30 and 100 mg/kg given at 10 ml/kg i.p. 180 min pre-treatment time.
Mice were individually assessed for the production of a tonic hind limb extensor seizure using a Hugo Sachs Electronik stimulator, which delivered an adjustable constant current (1-300 mA) of 0.1 s duration via corneal electrodes.
The stimulus intensity was varied by an ‘up and down’ method of shock titration.
This procedure continued for all mice within the treatment group. Data generated from treatment group of n=12 was used to calculate the CC50±s.e.m. values according to the method of Kimball et al. (1957).
Induction of seizure is measured as an all-or-nothing effect scored as either present (+) or absent (0) for each animal.
Data was analysed by comparing treated groups with the appropriate vehicle control using Fisher's Exact Probability tests.

[3] = 2.5 mg/kg i.p., 30 min pre-treatment
[4] = 10 mg/kg i.p., 180 min pre-treatment
[5] = 30 mg/kg i.p., 180 min pre-treatment
[6] = 100 mg/kg i.p., 180 min pre-treatment
[7] = 10 mg/kg i.p., 60 min pre-treatment
[8] = 30 mg/kg i.p., 60 min pre-treatment
[9] = 100 mg/kg i.p., 120 min pre-treatment

## CCCC(CCC)C(=O)[O-].[Na+] [Sodium Valproate, sodium valproate, reference compound]
[1]; 250 mg/kg i.p., 30 min pre-treatment
  % change from vehicle (CC50): 1057%

## CN1C(=O)CN=C(c2ccccc2)c2cc(Cl)ccc21 [Diazepam, diazepam, reference compound]
[2]; [3]
  % change from vehicle (CC50): 40%
[1]; [3]
  % change from vehicle (CC50): 255%

## C=C(C)[C@@H]1CCC(C)=C[C@H]1c1c(O)cc(CCCCCC)cc1O [CBD-C6, Cannabidiol-C6]
[2]; [4]
  % change from vehicle (CC50): 11%
  CC50 +/- SEM: 23.4 mA
[2]; [5]
  % change from vehicle (CC50): 63%
  CC50 +/- SEM: 34.3 mA
[2]; [6]
  % change from vehicle (CC50): 376%
  CC50 +/- SEM: >100 mA
[1]; [7]
  % change from vehicle (CC50): 27%
  CC50 ± SEM: 30.8 ± 1.9 mA
[1]; [8]
  % change from vehicle (CC50): 29%
  CC50 ± SEM: 31.5 ± 1.0 mA
[1]; [9]
  % change from vehicle (CC50): 239%
  CC50 ± SEM: 82.5 ± 0.7 mA
[1]; 10, 30 and 100 mg/kg i.p., compared to vehicle
  effect on MEST (in words): dose-related increase in MEST
